Assay results as given in patent publication US9029557B2, “Labeled A4B2 ligands and methods therefor” (priority 2004, dated 2015).
Like-named read-outs stand apart in the source and are kept apart here.

Legend:
α3β4 sites = target: T1, α3β4 sites (Rattus norvegicus, UniProt P04757+P12392); test: In vitro binding affinity, inhibition of 125I-IEB in rat brain slices (autoradiography), α3β4 sites; conditions: 125I-IEB in presence of 200 nmol/L cytisine
T1 construct: The brains from male Sprague-Dawley rats (n=4 per group) were extracted and frozen; from tissue; host or cells: rat brain slices (pineal, interpeduncular nucleus, medial habenula)
Procedure: (§1) In vitro binding affinity of nifrolidine was measured in rat brain slices labeled with 125I-iodoepibatidine (125I-IEB) or 125I-α-bungarotoxin. The brains from male Sprague-Dawley rats (n=4 per group) were extracted and frozen in isopentane at […].
(§2) Coronal sections (20-μm thick) were prepared from 4 brain levels on a cryostat at […]. […] Competition studies were performed by incubating alternate sections with 125IIEB in the absence or presence of cytisine (200 nmol/L) and nicotine (300 μmol/L) and various concentrations of nifrolidine (0-30 nmol/L). Slides were then rinsed twice for 10 min in ice-cold buffer, dipped briefly in ice-cold water, blown dry, and laid out for autoradiography along with 125I plastic standards of known radioactivity (FIG. 3). […]
(§3) Autoradiograms were quantified with a computer-based image analysis system (MCID; Imaging Research) using calibrated standards of reference. A calibration curve of to optical density against radioligand concentration (fmol/mg tissue) was constructed using values of known radioactivity. Optical densities in discrete regions of the autoradiographic images were measured, and corresponding values of radioactivity were determined by interpolation from the calibration curve. Specific binding values in each region were determined by subtracting binding in the presence of excess inhibitor from total binding values. […]

α7 nAChRs = target: T2, α7 nAChRs (Rattus norvegicus, UniProt Q05941); test: 125I-α-bungarotoxin binding competition in rat brain slices; conditions: up to a concentration of 30 nmol/L
T2 construct: The brains from male Sprague-Dawley rats (n=4 per group) were extracted and frozen; from tissue; host or cells: rat brain slices (VLG, SuG)
Procedure: as §1, §2, §3

α4β2 nAChRs [1] = target: T3, α4β2 nAChRs (Rattus norvegicus, UniProt P09483+P12390); test: In vitro binding affinity, inhibition of 125I-IEB in rat brain slices (autoradiography), α4β2 sites; design: from tissue; host or cells: brain of the living rat (PET); conditions: p-toluenesulfonate salt
Procedure: as §1, §2, §3

α3β2 sites = target: T4, α3β2 sites (Rattus norvegicus, UniProt P04757+P12390); test: In vitro binding affinity, inhibition of 125I-IEB in rat brain slices (autoradiography), α3β2 sites; conditions: 125I-IEB in presence of 200 nmol/L cytisine
T4 construct: The brains from male Sprague-Dawley rats (n=4 per group) were extracted and frozen; from tissue; host or cells: rat brain slices (DLG, SuG, optic tract)
Procedure: as §1, §2, §3

α4β2 nAChRs [2] = target: T3, α4β2 nAChRs; conditions: rat PET, cerebellum as reference region
α4β2 receptors [3] = target: T5, α4β2 receptors (Homo sapiens, UniProt P17787+P43681); design: host or cells: human brain in vivo (SPECT), work done elsewhere; conditions: human studies; cited from earlier work
α4β2 nAChRs [4] = target: α4β2 nAChRs (Homo sapiens, UniProt P17787+P43681); conditions: comparison agents; cited from earlier work
α4β2 receptors [5] = target: T5, α4β2 receptors; test: Affinity of Niofene; format: binding
α4β2 receptor [6] = target: T6, α4β2 receptor (Rattus norvegicus, UniProt P09483+P12390); test: Autoradiography of 123I-niodene in rat brain sections; format: binding; design: The brains from male Sprague-Dawley rats (n=4 per group) were extracted and frozen; from tissue; host or cells: rat brain (Sprague-Dawley); conditions: low specific activity 123I-niodene, 5 nM
α4β2 receptor [7] = target: T6, α4β2 receptor; test: Displacement of 18F-nifene bound in rat brain slices; format: binding; design: The brains from male Sprague-Dawley rats (n=4 per group) were extracted and frozen; from tissue; host or cells: rat brain (Sprague-Dawley); conditions: 10 nM
rat brain α4β2 receptors = target: T7, rat brain α4β2 receptors (Rattus norvegicus, UniProt P09483+P12390); test: Brain homogenate binding assay using 3H-cytisine; conditions: read-out: Binding affinity Ki for rat brain α4β2 receptors
T7 construct: The brains from male Sprague-Dawley rats (n=4 per group) were extracted and frozen; from tissue; host or cells: rat brain (Sprague-Dawley)

alpha4-beta2 receptors = alpha4-beta2 receptors (Rattus norvegicus, UniProt P09483+P12390); conditions: nicotine 60 μM, horizontal rat brain slices
α4β2 receptor [8] = system: α4β2 receptor
Procedure: The male rhesus monkey (12 kg) was anesthetized using ketamine (10 mg/kg) and xylazine (0.5 mg/kg) and was subsequently maintained on 0.5%-1.5% isoflurane. Two intravenous catheters were placed, one on each arm, for purposes of administration of the radiopharmaceutical and for obtaining blood samples during the study. The head of the animal was placed in the gantry of an ECAT EXACT HR PET scanner and positioned in place with adhesive tape as described previously. A transmission scan using a 68Ge/68Ga rod source was acquired before administration of the radiopharmaceutical to correct for tissue attenuation of the coincident radiation.
Data in the final form are expressed in units of the percentage injected dose per milliliter (% ID/mL) or kilobecquerels per milliliter (kBq/mL). […] Time-activity curves were obtained for all these regions. […] This MRI template of the rhesus (Macaca mulatta) brain is an average of 6 monkeys with T1-weighted MR scans. Postimage processing removed the skull and scalp from the template (courtesy of University of Wisconsin-Madison).

α4β2 receptor [9] = target: T6, α4β2 receptor; conditions: for % ID/g Blood / % ID/g Cerebellum / % ID/g Cortex / % ID/g Thalamus: i.v. 3.7 MBq
Description: The animals were allowed to recover from anesthesia and had free access to food and water. […] Thalamus, Ctx, cerebellum, and blood were isolated from each rat and placed in preweighed tubes and were counted for 18F radioactivity.

α4β2 receptor sites = α4β2 receptor sites (Rattus norvegicus, UniProt P09483+P12390)
Procedure: Coronal and horizontal brain slices ([…]) were obtained from male Sprague-Dawley rats. Sets of brain slices were preincubated in buffer (50 mmol/L Tris HCl containing 120 mmol/L NaCl, 5 mmol/L KCl, 2.5 mmol/L CaCl2, 1 mmol/L MgCl2, pH 7.4) for 10 min (26). […] Nonspecific binding was measured in the presence of […] (weighed as nicotine ditartarate). In some experiments, a lower concentration of nicotine (10 μmol/L) was also used. After incubation, slides were washed twice (1 min each) with ice-cold Tris HCl buffer, pH 7.4, followed by a quick rinse in cold deionized water. The slides were then air dried and apposed to phosphor screens overnight and read by the Cyclone Phosphor Imaging System (Packard Instruments Co).

[10] = rhesus monkey PET, 155 MBq i.v.

T6 sequence (P09483 31-630): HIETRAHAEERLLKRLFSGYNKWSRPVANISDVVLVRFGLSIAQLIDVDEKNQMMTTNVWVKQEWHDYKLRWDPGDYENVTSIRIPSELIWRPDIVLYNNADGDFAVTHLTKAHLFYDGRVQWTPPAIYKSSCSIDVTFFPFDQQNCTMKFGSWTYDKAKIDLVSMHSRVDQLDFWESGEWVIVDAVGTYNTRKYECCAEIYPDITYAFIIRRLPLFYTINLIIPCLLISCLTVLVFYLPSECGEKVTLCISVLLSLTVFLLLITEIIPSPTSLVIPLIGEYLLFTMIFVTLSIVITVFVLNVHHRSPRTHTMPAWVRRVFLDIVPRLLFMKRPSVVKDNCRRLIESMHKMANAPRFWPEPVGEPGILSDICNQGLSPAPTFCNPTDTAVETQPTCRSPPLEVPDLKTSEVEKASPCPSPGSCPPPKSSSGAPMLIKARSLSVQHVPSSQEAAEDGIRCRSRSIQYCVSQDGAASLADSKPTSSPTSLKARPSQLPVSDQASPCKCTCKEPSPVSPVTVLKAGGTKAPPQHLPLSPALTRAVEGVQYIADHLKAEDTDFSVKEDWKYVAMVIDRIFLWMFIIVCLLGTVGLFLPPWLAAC
T6 sequence (P12390 25-500): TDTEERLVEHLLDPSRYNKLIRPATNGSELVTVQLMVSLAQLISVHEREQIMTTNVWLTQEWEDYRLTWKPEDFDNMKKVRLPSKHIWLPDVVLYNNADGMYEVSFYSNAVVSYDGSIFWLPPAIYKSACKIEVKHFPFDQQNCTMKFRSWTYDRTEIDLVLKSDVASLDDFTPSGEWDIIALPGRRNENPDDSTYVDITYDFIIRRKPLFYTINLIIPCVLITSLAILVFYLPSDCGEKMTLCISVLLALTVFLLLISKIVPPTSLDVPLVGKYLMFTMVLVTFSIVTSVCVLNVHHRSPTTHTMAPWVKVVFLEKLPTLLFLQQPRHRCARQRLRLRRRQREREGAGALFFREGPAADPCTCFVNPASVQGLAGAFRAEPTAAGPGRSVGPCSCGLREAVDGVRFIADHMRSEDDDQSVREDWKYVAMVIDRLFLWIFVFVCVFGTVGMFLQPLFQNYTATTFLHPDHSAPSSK
T5 sequence (P43681 29-627 limits assumed): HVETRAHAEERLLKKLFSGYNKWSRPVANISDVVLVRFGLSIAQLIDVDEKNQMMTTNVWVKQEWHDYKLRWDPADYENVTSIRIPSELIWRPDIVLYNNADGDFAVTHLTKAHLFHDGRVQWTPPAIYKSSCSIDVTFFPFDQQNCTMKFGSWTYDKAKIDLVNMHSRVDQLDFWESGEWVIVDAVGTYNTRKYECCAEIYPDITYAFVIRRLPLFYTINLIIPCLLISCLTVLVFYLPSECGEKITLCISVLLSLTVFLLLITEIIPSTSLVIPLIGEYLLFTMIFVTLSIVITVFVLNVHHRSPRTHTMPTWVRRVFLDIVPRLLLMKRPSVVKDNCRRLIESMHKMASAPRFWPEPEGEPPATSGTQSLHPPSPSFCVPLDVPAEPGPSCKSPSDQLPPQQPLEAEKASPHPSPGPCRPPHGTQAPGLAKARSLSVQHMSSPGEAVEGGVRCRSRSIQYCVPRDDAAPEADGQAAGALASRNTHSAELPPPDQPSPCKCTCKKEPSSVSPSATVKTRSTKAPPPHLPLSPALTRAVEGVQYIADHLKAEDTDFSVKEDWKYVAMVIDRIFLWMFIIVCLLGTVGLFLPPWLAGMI
T5 sequence (P17787 26-502): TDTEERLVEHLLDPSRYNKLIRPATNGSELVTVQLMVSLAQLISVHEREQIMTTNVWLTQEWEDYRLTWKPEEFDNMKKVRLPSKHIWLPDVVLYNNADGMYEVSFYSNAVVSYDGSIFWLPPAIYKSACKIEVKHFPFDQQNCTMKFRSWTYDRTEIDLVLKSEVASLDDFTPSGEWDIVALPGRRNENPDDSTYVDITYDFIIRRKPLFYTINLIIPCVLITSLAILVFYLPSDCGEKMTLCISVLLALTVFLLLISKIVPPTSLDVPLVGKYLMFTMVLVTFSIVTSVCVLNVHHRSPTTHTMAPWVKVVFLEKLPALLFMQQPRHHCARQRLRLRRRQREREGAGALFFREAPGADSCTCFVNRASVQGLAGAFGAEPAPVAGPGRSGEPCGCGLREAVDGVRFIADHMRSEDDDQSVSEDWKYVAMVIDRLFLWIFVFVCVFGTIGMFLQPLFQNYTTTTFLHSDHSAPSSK
T2 sequence (Q05941 23-502): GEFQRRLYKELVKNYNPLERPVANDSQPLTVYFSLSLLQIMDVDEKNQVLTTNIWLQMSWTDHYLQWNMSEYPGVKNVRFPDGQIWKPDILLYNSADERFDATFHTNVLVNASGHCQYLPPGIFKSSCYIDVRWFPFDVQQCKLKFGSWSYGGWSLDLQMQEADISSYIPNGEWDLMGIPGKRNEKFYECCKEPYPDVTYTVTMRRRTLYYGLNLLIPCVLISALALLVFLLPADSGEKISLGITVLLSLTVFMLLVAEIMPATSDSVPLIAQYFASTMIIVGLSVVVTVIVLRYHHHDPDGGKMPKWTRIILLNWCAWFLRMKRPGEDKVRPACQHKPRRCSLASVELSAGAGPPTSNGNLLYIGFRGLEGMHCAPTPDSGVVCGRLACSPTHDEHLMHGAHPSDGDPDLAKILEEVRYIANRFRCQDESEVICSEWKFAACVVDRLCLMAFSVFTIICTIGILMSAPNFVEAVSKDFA
T3 sequence (P09483 31-630): as the sequence (P09483 31-630) above
T3 sequence (P12390 25-500): as the sequence (P12390 25-500) above
Sequence of α4β2 receptor sites (P09483 31-630): as the sequence (P09483 31-630) above
Sequence of α4β2 receptor sites (P12390 25-500): as the sequence (P12390 25-500) above
T4 sequence (P04757 26-499): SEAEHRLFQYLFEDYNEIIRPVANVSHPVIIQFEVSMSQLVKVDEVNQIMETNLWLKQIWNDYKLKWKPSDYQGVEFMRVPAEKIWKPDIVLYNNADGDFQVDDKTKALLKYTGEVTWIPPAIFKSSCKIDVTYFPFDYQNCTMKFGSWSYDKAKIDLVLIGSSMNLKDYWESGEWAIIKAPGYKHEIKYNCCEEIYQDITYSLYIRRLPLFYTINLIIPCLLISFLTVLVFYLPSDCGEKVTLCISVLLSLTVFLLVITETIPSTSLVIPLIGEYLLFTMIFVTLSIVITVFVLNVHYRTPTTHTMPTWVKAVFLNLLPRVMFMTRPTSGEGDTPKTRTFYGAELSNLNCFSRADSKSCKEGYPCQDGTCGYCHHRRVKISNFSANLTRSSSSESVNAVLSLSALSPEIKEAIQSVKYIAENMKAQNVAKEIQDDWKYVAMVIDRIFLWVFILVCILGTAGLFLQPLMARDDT
T4 sequence (P12390 25-500): as the sequence (P12390 25-500) above
T1 sequence (P04757 26-499): as the sequence (P04757 26-499) above
T1 sequence (P12392 21-495): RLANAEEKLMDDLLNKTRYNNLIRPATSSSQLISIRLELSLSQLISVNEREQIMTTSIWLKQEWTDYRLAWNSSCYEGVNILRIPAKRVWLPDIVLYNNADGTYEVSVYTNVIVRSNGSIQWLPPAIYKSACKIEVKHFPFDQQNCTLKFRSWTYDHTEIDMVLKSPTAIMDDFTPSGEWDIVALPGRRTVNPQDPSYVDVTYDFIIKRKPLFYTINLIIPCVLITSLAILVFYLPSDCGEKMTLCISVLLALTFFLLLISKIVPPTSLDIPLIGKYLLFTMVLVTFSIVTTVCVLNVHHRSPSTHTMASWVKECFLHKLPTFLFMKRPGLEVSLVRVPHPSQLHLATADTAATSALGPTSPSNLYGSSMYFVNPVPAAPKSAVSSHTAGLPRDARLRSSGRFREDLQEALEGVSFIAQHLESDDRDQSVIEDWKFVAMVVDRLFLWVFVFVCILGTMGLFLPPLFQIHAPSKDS
Sequence of α4β2 nAChRs (Homo sapiens, UniProt P17787+P43681) (P43681 29-627 limits assumed): as the sequence (P43681 29-627 limits assumed) above
Sequence of α4β2 nAChRs (Homo sapiens, UniProt P17787+P43681) (P17787 26-502): as the sequence (P17787 26-502) above
Sequence of alpha4-beta2 receptors (P09483 31-630): as the sequence (P09483 31-630) above
Sequence of alpha4-beta2 receptors (P12390 25-500): as the sequence (P12390 25-500) above
T7 sequence (P09483 31-630): as the sequence (P09483 31-630) above
T7 sequence (P12390 25-500): as the sequence (P12390 25-500) above

## FCCCc1cncc(OC[C@@H]2CCCN2)c1 [nifrolidine, 5-(3′-fluoropropyl)-3-(2-(S)-pyrrolidinylmethoxy)-pyridine]
α3β4 sites
  Ki: > 30 nM
α7 nAChRs
  affinity for α7 sites (displacement of 125I-α-bungaratoxin): no measureable displacement and weak
α4β2 nAChRs [1]
  Ki: 2.89 nM
α3β2 sites
  Ki: > 30 nM

## [18F]c1ncc(I)cc1OC[C@@H]1C=CCN1 [18F-Niofene, 2-^18F-5-iodo-3-[2-(S)-3,4-dehydropyrrolinylmethoxy]pyridine]
α4β2 nAChRs [2]
  TH/CB at pseudoequilibrium: > 2

## Ic1cncc(OC[C@@H]2CCN2)c1 [5-IA85380]
α4β2 receptors [3]
  scanning time required: over 6 hrs

## [18F]c1ncccc1OC[C@@H]1CCN1 [2-FA85380, 2-18F-fluoro-3-(2(S)-azetidinylmethoxy)pyridine]
α4β2 nAChRs [4]
  time to reach pseudoequilibrium: 4 to 6 h

## Fc1ncc(I)cc1OC[C@@H]1C=CCN1 [Niofene, 2-Fluoro-5-iodo-3-[2-(S)-3,4-dehydropyrrolinylmethoxy]pyridine]
α4β2 receptors [5]
  affinity: subnanomolar

## [123I]c1cncc(OCC2C=CCN2)c1 (centres unmarked) [^123I-niodene]
α4β2 receptor [6]
  cortex to cerebellum binding ratio: 1.6
  thalamus to cerebellum binding ratio: 4

## Ic1cncc(OC[C@@H]2C=CCN2)c1 [Niodene, 3-iodo-5-[2-(S)-3-pyrrolinylmethoxy]pyridine]
α4β2 receptor [7]
  displacement of 18F-nifene bound to α4β2 receptors: > 95%
Rat brain α4β2 receptors
  Ki: 0.27 nM

## [18F]c1ncccc1OC[C@@H]1C=CCN1 [^18F-Nifene, 2-[^18F]fluoro-3-[2-(S)-pyrrolinyl-3,4-dehydromethoxy]pyridine]
alpha4-beta2 receptors
  reversal of binding by nicotine: rapidly reverse

## [18F]CCCc1cncc(OC[C@@H]2CCCN2)c1 [18F-nifrolidine, 5-(3-18F-fluoropropyl)-3-(2-(S)-pyrrolidinylmethoxy)pyridine]
α4β2 receptor [8]; anesthetized rhesus monkey, 155 MBq
  vital signs: did not exhibit any unusual deviations from the baseline values
α4β2 receptor [8]; rhesus monkey PET
  time of maximal binding in the thalamus following injection: > 70 min
  time to approach transient equilibrium: about 2.5 hrs
  time to plateauing of the thalamus-to-Cb ratio: 150 min
α4β2 receptor [8]; [10]
  selective maximal uptake in AVT and AMT: 0.011 % ID/mL
  uptake in VLT: 0.10 % ID/mL
α4β2 receptor [8]; rhesus monkey PET, about 140 min after injection
  ratio between the thalamus and the Cb: approximately 1.7
α4β2 receptor [8]; rhesus monkey PET, in 120 min
  cortical regions to Cb ratio: 1.3
  thalamus-to-Cb ratio (plateau): 1.7
α4β2 receptor [9]; rat, 2 min
  Thalamus-to-cerebellum ratio, Control: 1.30
  % ID/g Blood: 0.25 % ID/g
  % ID/g Cerebellum: 0.24 ± 0.03 % ID/g
  % ID/g Cortex: 0.21 ± 0.04 % ID/g
  % ID/g Thalamus: 0.26 ± 0.05 % ID/g
α4β2 receptor [9]; rat, 60 min
  Thalamus-to-cerebellum ratio, Control: 3.08
  % ID/g Blood: 0.14 ± 0.03 % ID/g
  % ID/g Cerebellum: 0.12 ± 0.02 % ID/g
  % ID/g Cortex: 0.25 ± 0.03 % ID/g
  % ID/g Thalamus: > 0.3 % ID/g
α4β2 receptor [9]; rat, 60 min, nicotine ditartarate 10 mg/kg s.c. 5 min before 18F-nifrolidine
  Thalamus-to-cerebellum ratio, Before nicotine: 1.8
α4β2 receptor [9]; rat, 120 min
  Thalamus-to-cerebellum ratio, Control: 1.40
  % ID/g Blood: < 0.03 % ID/g
  % ID/g Cerebellum: 0.10 ± 0.02 % ID/g
  % ID/g Cortex: 0.13 ± 0.04 % ID/g
  % ID/g Thalamus: 0.14 ± 0.03 % ID/g
α4β2 receptor [9]; rat, 2 min, listed as 18F-NIFROLIDINE
  % ID/g Blood: 0.25 ± 0.09 % ID/g
α4β2 receptor [9]; rat, 60 min, listed as 18F-NIFROLIDINE
  % ID/g Thalamus: 0.37 ± 0.07 % ID/g
α4β2 receptor [9]; rat, 120 min, listed as 18F-NIFROLIDINE
  % ID/g Blood: 0.04 ± 0.01 % ID/g
α4β2 receptor [9]; rodents, in vivo
  blood-brain barrier penetration: able to cross the blood-brain barrier
α4β2 receptor sites; horizontal rat brain slices
  binding in cerebellum as % of that found in the AV: approximately 8%
α4β2 receptor sites; horizontal slices
  order of binding in brain regions: thalamus>Ctx>striata>cerebellum
